In US20240217978A1 (CHONG KUN DANG PHARMACEUTICAL CORP., priority 2021, published 2024):

Target: human adenosine A2a receptor (Homo sapiens (Human), UniProt P29274)
Test: A2a receptor binding affinity, [3H]-NECA radioligand binding test
Settings: [3H]-NECA 37 nM; membrane from HEK-293 cells transfected with human adenosine A2a receptor
Method: The binding affinity of the compounds according to Examples of the present invention to the human adenosine A2a receptor was evaluated by entrusting SB drug discovery in the UK.
A radioligand binding test was conducted by using [3H]-NECA (5′-N-[adenine-2,8-3H]-ethylcarboxamidoadenosine) and an adenosine A2a membrane. As the adenosine A2a membrane, a cell membrane prepared from HEK-293 cells transfected with human adenosine A2a receptor was used. The membrane used for the test was prepared by incubating with a radioligand until equilibrium was reached. In order to separate the radioligand-bound membrane, the unbound radioligand was separated by using Packard filtermate Harverster and glass filter plates.
10 μL of test compound dissolved in binding buffer (50 mM Tris, 10 mM MgCl2, 1 mM EDTA pH 7.4) and 20 μL of [3H]-NECA (final concentration of 37 nM) or reference inhibitor was mixed with 20 μL of A2a membrane in an unbound 96-well plate and incubated at room temperature for one hour. Prior to filtration, a 96-well harvest filter plate was coated with 0.33% polyethylenimine for 30 minutes and then washed with assay buffer. The binding reaction was transferred to the filter plate and washed three times with wash buffer. The dish was then dried, scintillant was added, and radioactivity was counted in a scintillation counter (Topcount NXT, Packard).
The binding affinity IC50 (μM) for the human adenosine A2a receptor obtained according to the above experimental method is shown in the table below.

human adenosine A2a receptor, sequence (P29274 whole entry): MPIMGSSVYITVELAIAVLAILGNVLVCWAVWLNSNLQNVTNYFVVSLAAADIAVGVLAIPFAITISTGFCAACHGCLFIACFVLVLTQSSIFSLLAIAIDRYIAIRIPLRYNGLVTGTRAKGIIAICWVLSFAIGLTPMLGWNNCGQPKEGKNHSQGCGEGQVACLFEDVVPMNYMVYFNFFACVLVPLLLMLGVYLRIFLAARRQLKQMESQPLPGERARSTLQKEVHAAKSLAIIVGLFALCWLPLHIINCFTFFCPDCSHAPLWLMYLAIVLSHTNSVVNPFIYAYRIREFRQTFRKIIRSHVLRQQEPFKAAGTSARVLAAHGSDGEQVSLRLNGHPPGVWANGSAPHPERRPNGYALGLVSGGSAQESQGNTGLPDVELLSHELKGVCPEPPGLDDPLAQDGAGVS

Row | Compound | IC50 [nM]
1 | Nc1nc(N2CCC[C@@H]2C(=O)N2CCN(Cc3ccccc3)CC2)nc2nc(-c3ccco3)nn12 [Example 95, (R)-(1-(7-amino-2-(furan-2-yl)-[1,2,4]triazolo[1,5-a][1,3,5]triazin-5-yl)pyrrolidin-2-yl)(4-benzylpiperazin-1-yl)methanone] | 4990
2 | CCCCN1CCN(C(=O)[C@H](CC)Nc2nc(N)n3nc(-c4ccco4)nc3n2)CC1 [Example 172, (S)-2-((7-amino-2-(furan-2-yl)-[1,2,4]triazolo[1,5-a][1,3,5]triazin-5-yl)amino)-1-(4-butylpiperazin-1-yl)butan-1-one] | 13
3 | COCCOCCN1CCN(C(=O)[C@@H]2CCCN2c2nc(N)n3nc(-c4ccco4)nc3n2)CC1 [Example 141, (S)-(1-(7-amino-2-(furan-2-yl)-[1,2,4]triazolo[1,5-a][1,3,5]triazin-5-yl)pyrrolidin-2-yl)(4-(2-(2-methoxyethoxy)ethyl)piperazin-1-yl)methanone] | 15
4 | CC(C)(F)CN1CCN(C(=O)[C@H]2CCCN2c2nc(N)n3nc(-c4ccco4)nc3n2)CC1 [Example 93, (R)-(1-(7-amino-2-(furan-2-yl)-[1,2,4]triazolo[1,5-a][1,3,5]triazin-5-yl)pyrrolidin-2-yl)(4-(2-fluoro-2-methylpropyl)piperazin-1-yl)methanone] | 3790
5 | Nc1nc(N2CCC[C@H]2C(=O)N2CCN(Cc3ccc(F)cc3F)CC2)nc2oc(-c3ccco3)nc12 [Example 41, (S)-(1-(7-amino-2-(furan-2-yl)oxazolo[5,4-d]pyrimidin-5-yl)pyrrolidin-2-yl)(4-(2,4-difluorobenzyl)piperazin-1-yl)methanone] | 13
6 | Nc1nc(N2CCC[C@H]2C(=O)N2CCN(C(=O)c3ccccc3)CC2)nc2nc(-c3nccs3)nn12 [Example 192] | 17
7 | Nc1nc(N2CCC[C@@H]2C(=O)N2CCN(C(=O)Nc3ccccc3)CC2)nc2nc(-c3ccco3)nn12 [Example 100] | 9460
8 | CCCCN1CCN(C(=O)[C@@H](Nc2nc(N)n3nc(-c4ccco4)nc3n2)C2CCC2)CC1 [Example 177, (S)-2-((7-amino-2-(furan-2-yl)-[1,2,4]triazolo[1,5-a][1,3,5]triazin-5-yl)amino)-1-(4-butylpiperazin-1-yl)-2-cyclobutylethan-1-one] | 20
9 | CCC[C@H](Nc1nc(N)n2nc(-c3ccco3)nc2n1)C(=O)N1CCN(CC(F)(F)F)CC1 [Example 212, (S)-2-((7-amino-2-(furan-2-yl)-[1,2,4]triazolo[1,5-a][1,3,5]triazin-5-yl)amino)-1-(4-(2,2,2-trifluoroethyl)piperazin-1-yl)pentan-1-one] | 12
10 | Nc1nc(N2CCC[C@H]2C(=O)N2C3CCC2CN(C(=O)Nc2ccccc2)C3)nc2nc(-c3ccco3)nn12 [Example 180, 8-((7-amino-2-(furan-2-yl)-[1,2,4]triazolo[1,5-a][1,3,5]triazin-5-yl)-L-prolyl)-N-phenyl-3,8-diazabicyclo[3.2.1]octane-3-carboxamide] | 7
11 | Nc1nc(N2CCC[C@H]2C(=O)N2CCN(CC(F)F)CC2)nc2oc(-c3ccco3)nc12 [Example 269, (S)-(1-(7-amino-2-(furan-2-yl)oxazolo[5,4-d]pyrimidin-5-yl)pyrrolidin-2-yl)(4-(2,2-difluoroethyl)piperazin-1-yl)methanone] | 39
12 | Nc1nc(N2CCC[C@@H]2C(=O)N2CCN(C(=O)c3ccccc3)CC2)nc2nc(-c3ccco3)nn12 [Example 98] | 11300
13 | CC(C)(O)CC(=O)N1CCN(C(=O)[C@@H]2CCCN2c2nc(N)c3nc(-c4ccco4)oc3n2)CC1 [Example 263, 1-(4-((7-amino-2-(furan-2-yl)oxazolo[5,4-d]pyrimidin-5-yl)-L-prolyl)piperazin-1-yl)-3-hydroxy-3-methylbutan-1-one] | 25
14 | Nc1nc(N2CCC[C@H]2C(=O)N2CCn3nc(C(F)(F)F)nc3C2)nc2nc(-c3ccco3)nn12 [Example 309] | 21

Further compounds by falling IC50, results first:

Row | IC50 [nM] | Compound
15 | 12 | Nc1nc(N2CCC[C@H]2C(=O)N2CCN(CC3(C(F)(F)F)CC3)CC2)nc2nc(-c3ccco3)nn12 [Example 283, (S)-(1-(7-amino-2-(furan-2-yl)-[1,2,4]triazolo[1,5-a][1,3,5]triazin-5-yl)pyrrolidin-2-yl)(4-((1-(trifluoromethyl)cyclopropyl)methyl)piperazin-1-yl)methanone]
16 | 10 | CC(C)[C@H](Nc1nc(N)n2nc(-c3ccco3)nc2n1)C(=O)N1CCN(CC(C)(F)F)CC1 [Example 360, (S)-2-((7-amino-2-(furan-2-yl)-[1,2,4]triazolo[1,5-a][1,3,5]triazin-5-yl)amino)-1-(4-(2,2-difluoropropyl)piperazin-1-yl)-3-methylbutan-1-one]
17 | 9 | Nc1nc(N2CCC[C@H]2C(=O)N2CCN(c3nccs3)CC2)nc2nc(-c3ccco3)nn12 [Example 125, 2-(4-((7-amino-2-(furan-2-yl)-[1,2,4]triazolo[1,5-a][1,3,5]triazin-5-yl)-L-prolyl)piperazin-1-yl)thiazole]
18 | 9 | Nc1nc(N2CCC[C@H]2C(=O)N2CCN(CCC(F)(F)F)CC2)nc2nc(-c3ccco3)nn12 [Example 281, (S)-(1-(7-amino-2-(furan-2-yl)-[1,2,4]triazolo[1,5-a][1,3,5]triazin-5-yl)pyrrolidin-2-yl)(4-(3,3,3-trifluoropropyl)piperazin-1-yl) methanone]
19 | 9 | Nc1nc(N2CCC[C@H]2C(=O)N2CCC(C3CCN(C(=O)c4ccccc4)CC3)CC2)nc2nc(-c3ccco3)nn12 [Example 161, (1′-((7-amino-2-(furan-2-yl)-[1,2,4]triazolo[1,5-a][1,3,5]triazin-5-yl)-L-prolyl)-[4,4′-bipiperidin]-1-yl)(phenyl)methanone]
20 | 9 | Cc1ccc(-c2nc3nc(N4CCC[C@H]4C(=O)N4CCN(CCCC(F)(F)F)CC4)nc(N)n3n2)o1 [Example 300, (S)-(1-(7-amino-2-(5-methylfuran-2-yl)-[1,2,4]triazolo[1,5-a][1,3,5]triazin-5-yl)pyrrolidin-2-yl)(4-(4,4,4-trifluorobutyl)piperazin-1-yl)methanone]
21 | 9 | Nc1nc(N2CCC[C@H]2C(=O)N2CC(Cc3ccccc3)C2)nc2nc(-c3ccco3)nn12 [Example 113, (S)-(1-(7-amino-2-(furan-2-yl)-[1,2,4]triazolo[1,5-a][1,3,5]triazin-5-yl)pyrrolidin-2-yl)(3-benzylazetidin-1-yl)methanone]
22 | 8 | Nc1nc(N2CCC[C@H]2C(=O)N2CCN(C(=O)CO)CC2)nc2nc(-c3ccco3)nn12 [Example 237, 1-(4-((7-amino-2-(furan-2-yl)-[1,2,4]triazolo[1,5-a][1,3,5]triazin-5-yl)-L-prolyl)piperazin-1-yl)-2-hydroxyethan-1-one]
23 | 7 | Nc1nc(N2CCC[C@H]2C(=O)N2CCN(C(=O)C3CCS(=O)(=O)CC3)CC2)nc2nc(-c3ccco3)nn12 [Example 106]
24 | 6 | CC(F)(F)CN1CCN(C(=O)[C@@H]2CCCN2c2nc(N)n3nc(-c4ccco4)nc3n2)CC1 [Example 224, (S)-(1-(7-amino-2-(furan-2-yl)-[1,2,4]triazolo[1,5-a][1,3,5]triazin-5-yl)pyrrolidin-2-yl)(4-(2,2-difluoropropyl)piperazin-1-yl)methanone]
25 | 6 | Nc1nc(N2CCC[C@H]2C(=O)N2CCN(C3CCCCC3)CC2)nc2nc(-c3ccco3)nn12 [Example 54]
26 | 4 | Nc1nc(N2CCC[C@H]2C(=O)N2CC3(CCN(C(=O)c4ccccc4)CC3)C2)nc2nc(-c3ccco3)nn12 [Example 160, (2-((7-amino-2-(furan-2-yl)-[1,2,4]triazolo[1,5-a][1,3,5]triazin-5-yl)-L-prolyl)-2,7-diazaspiro[3.5]nonan-7-yl)(phenyl)methanone]
27 | 4 | CCc1cccc(NC(=O)C2CCN(C(=O)[C@@H]3CCCN3c3nc(N)n4nc(-c5ccco5)nc4n3)CC2)c1 [Example 131, 1-((7-amino-2-(furan-2-yl)-[1,2,4]triazolo[1,5-a][1,3,5]triazin-5-yl)-L-prolyl)-N-(3-ethylphenyl)piperidin-4-carboxamide]
28 | 4 | CC(C)(F)CN1CCN(C(=O)[C@@H]2CCCN2c2nc(N)n3nc(-c4ccco4)nc3n2)CC1 [Example 26, (S)-(1-(7-amino-2-(furan-2-yl)-[1,2,4]triazolo[1,5-a][1,3,5]triazin-5-yl)pyrrolidin-2-yl)(4-(2-fluoro-2-methylpropyl)piperazin-1-yl)methanone]
29 | 3 | COCCN1CCN(C(=O)[C@@H]2CCCN2c2nc(N)n3nc(-c4ccco4)nc3n2)CC1=O [Example 246, 4-((7-amino-2-(furan-2-yl)-[1,2,4]triazolo[1,5-a][1,3,5]triazin-5-yl)-L-prolyl)-1-(2-methoxyethyl)piperazin-2-one]
30 | 1.43 | Nc1nc(N2CCC[C@H]2C(=O)N2CCN(c3ccc(F)cc3F)CC2)nc2nc(-c3ccco3)nn12 [Example 12, (S)-(1-(7-amino-2-(furan-2-yl)-[1,2,4]triazolo[1,5-a][1,3,5]triazin-5-yl)pyrrolidin-2-yl)(4-(2,4-difluorophenyl)piperazin-1-yl)methanone]
31 | 1 | Nc1nc(N[C@@H](Cc2ccccc2)C(=O)N2CCC(Cc3ccccc3)CC2)nc2nc(-c3ccco3)nn12 [Example 2]
